Data taken from patent publication EP2792354A2, “COMPOSITION OF […] ACUTE AND CHRONIC HEPATIC ENCE[…] METHOD FOR TREATING ACUTE AND CHRONIC HEPATIC ENCEPHALOPATHY” (Obshchestvo S Ogranichennoj Otvetstvennostju …, priority 2011, dated 2012).

Experiments:
[1] = type 2 diabetes (D2) mice, CCl4, injections 3 days; alive animals
Procedure: In the experiments, male albino mice weighing 20 - 35 g after 12 hours of fasting. • 1. […] The recommended classification of the stages of HE for laboratory animals was used (116). • 2.1 The models of acute liver failure , resulting in necrosis and fatty degeneration of the liver cells due to oxidative stress , by introducing :CCl4 (2 - 4ml/kg subcutaneously or i.p.); acetaminophen-AAF (300 - 500mg/kg i.p.) or thioacetamide (TAA , 300 - 500mg / kg i.p.), in accordance with known data (103,104,116-118). […] Control the level of glucose, insulin , ALT , bilirubin, glycerol, triglycerides and fatty acids in the blood and in the liver, histological examination of the liver was carried out. • 2.2.2 The model of type 2 diabetes, according to the data of (115), in which after 1 - 2 months of feeding fat, animals were injected i.p. 50mg/kg of streptozotocin (to suppress the activity of β-cells) and then 15 days later , after controlling for the main indicators of the blood ,were used in the experiments.
The comparison of the efficacy of compositions ∑3 and LoLa on the alive diabetic animals treated with CCL4 and protectors used (according to pp.4-6 of Tab.2)

[2] = tested on: acute HE, induced by ammonia injection in mice; experiment: CCl4 pretreatment 24 hours before lethal dose of NH4Cl (preconditioning), animal survival; assay type: in vivo; settings: CCl4 2 ml/kg wt 24 hours before NH4Cl LD100+; NaCl instead of protector
Procedure: Table 1. […] Introduction of various doses of NH4 (12-14 mmol / kg) at 24 hours after administration of these toxins, can cause the development of acute HE and death of most or all animals. However, this effect depends on the dose used toxins CCl4. It can be seen that low doses of CCl4 (2ml/kg), being administered to intact animals , results in almost total protection against the lethal dose of NH4, resulting in the survival of 80 % of treated animals, i.e. there is the effect of preconditioning.

Row | SMILES | AAT plasma [1] | Glucose Plasma [1] | LCFA Plasma [1] | % survival [2]
1 | [Cl-].[Na+] [NaCl] | 1540±350 U/L | 13,1±0,8 mMol | 1,55±0,28 mMol | 
2 | ClC(Cl)(Cl)Cl [CCl4] |  |  |  | 80%
